From patent publication US20240208989A1, “NOVEL 12-EPI-MUTILIN COMPOUNDS AND USES THEREOF” (NABRIVA THERAPEUTICS GMBH, priority 2021, published 2024)
Values after ≈ are worked out from the molar mass of the structure shown. Where a name gives a salt, the structure may show the parent alone. Read-outs that look alike come from different tables or passages of the source.

What was measured:
Borreliella spp. = assay: MIC by broth microdilution against Borreliella strains; format: cell-based, Borreliella burgdorferi (n=5) and Borreliella garinii (n=1); conditions: BSK II medium, n = 6 isolates
Protocol: Minimal inhibitory concentrations (MIC) were determined against five (n=5) Borreliella burgdorferi isolates (ATCC 51990, 55131, 35211, 35210, 53899) and one (n=1) Borreliella garinii isolate (ATCC 51991) by broth microdilution technique ([…]., Jorgensen, J. H., Barbour, A. G. In vitro antimicrobial susceptibility testing of Boreliella burgdorferi: a microdilution MIC method and time-kill studies. […] Feng, J., Wang, T., Shi, W., et al. Identification of novel activity against Boreliella burgdorferi persisters using an FDA approved drug library. […] (2018) Methods for dilution antimicrobial susceptibility tests for bacteria that grow aerobically: Eleventh edition. […]; CLSI. (2021) Performance Standards for Antimicrobial Susceptibility Testing: Thirty-first Edition. M100-S31). Briefly, Borreliella spp. were grown at 36° C. under microaerophilic conditions in BSK II medium until the logarithmic or stationary growth phase was reached. The growth phase was determined by semiquantitative measurement of active and dormant cells by fluorescence microscopy of cells stained with the fluorescent dyes SYBR Green I and propidium iodide. An inoculum of 10^5-10^6 spirochetes/mL was used to inoculate broth microdilution plates containing serially 2-fold diluted test compounds.

Cutibacterium avidum = assay: MIC by standard agar dilution (CLSI M11), anaerobic; format: cell-based; conditions: Wilkins-Chalgren-Agar, 48 h, 37° C., read-out: MIC Cutibacterium avidum (n = 5)
Cutibacterium granulosum = assay: as above; format: cell-based; conditions: Wilkins-Chalgren-Agar, 48 h, 37° C., read-out: MIC Cutibacterium granulosum (n = 7)
[1] = tested on: Streptococcus agalactiae lsa(E); assay: MIC by standard broth microdilution (CLSI), CAMHB; format: cell-based; conditions: for MIC: Streptococcus agalactiae, read-out: MIC Streptococcus agalactiae lsa(E) (n = 2), Lefamulin resistant, n = 2 isolates
Protocol: (§1) The in vitro activity against bacteria including isolates that are resistant to Lefamulin was determined by standard broth microdilution according to the Clinical and Laboratory Standards Institute CLSI document (Performance Standards for Antimicrobial Susceptibility Testing) M100Ed29E (2019) and (Methods for Dilution Antimicrobial Susceptibility Test for Bacteria That Grow Aerobically) M07Ed11 (2018) or other years' versions thereof. The data were obtained using cation-adjusted Mueller Hinton broth medium (CAMHB).

[2] = tested on: Staphylococcus aureus ATCC49951; assay: MIC by standard broth microdilution (CLSI), CAMHB; format: cell-based; conditions: for MIC: Staphylococcus aureus, ATCC49951
Protocol: as §1

[3] = tested on: Streptococcus pneumoniae ATCC49619; assay: MIC by standard broth microdilution (CLSI), CAMHB; format: cell-based; conditions: for MIC: Streptococcus pneumoniae, ATCC49619
Protocol: as §1

[4] = tested on: Staphylococcus aureus vga(A) (+); assay: MIC by standard broth microdilution (CLSI), CAMHB; format: cell-based; conditions: Lefamulin resistant; for MIC: Staphylococcus aureus
Protocol: as §1

[5] = tested on: Staphylococcus aureus cfr (+); assay: MIC by standard broth microdilution (CLSI), CAMHB; format: cell-based; conditions: for MIC: Staphylococcus aureus, read-out: MIC Staphylococcus aureus cfr (+) (n = 2), Lefamulin resistant, n = 2 isolates
Protocol: as §1

Cutibacterium acnes = assay: MIC by standard agar dilution (CLSI M11), anaerobic; format: cell-based; conditions: Wilkins-Chalgren-Agar, 48 h, 37° C., read-out: MIC Cutibacterium acnes (n = 5)
[6] = Cytotoxicity, human hepatocyte assay (ATPlite); format: cell-based; conditions: primary human hepatocytes
Protocol: The cytotoxicity for compounds of the present invention was determined using a human hepatocyte assay. Primary human hepatocytes were incubated with various test compound concentrations (in triplicate) for 2 hours. Viability of cells is then measured by the luminescence ATPlite detection assay system according to the manufacturer (Perkin Elmer). ATP is a marker for cell viability because it is present in all metabolically active cells and the concentration declines very rapidly when the cells undergo necrosis or apoptosis. The ATPlite assay system is based on the production of light caused by the reaction of ATP with added luciferase and D-luciferin, where the emitted light is proportional to the ATP concentration (within certain limits).

[7] = 192 h, stationary growth phase, read after 8 days, read-out: MIC (μg/mL) for Stationary Growth Phase Culture (n = 6)
[8] = logarithmic growth phase, read after 5 or 6 days, read-out: MIC (μg/mL) for Logarithmic Growth Phase Culture (n = 6)
[9] = Lefamulin resistant, n = 2 isolates

Row | Compound | MIC (Borreliella spp.; [7]) | MIC (Borreliella spp.; [8]) | MIC (Cutibacterium avidum) | MIC (Cutibacterium granulosum) | MIC (Cutibacterium acnes) | also measured
1 | C=C[C@]1(C)C[C@@H](OC(=O)CO)[C@]2(C)[C@H](C)CC[C@]3(CCC(=O)[C@H]32)[C@@H](C)[C@@H]1O [Pleuromutilin] | 0.12 to 2 µg/mL (≈ 0.317 to 5.28 µM) | 0.12 to 1 µg/mL (≈ 0.317 to 2.64 µM) |  |  |  | 
2 | C[C@H]1c2cccc(O)c2C(=O)C2=C(O)[C@]3(O)C(=O)C(C(N)=O)=C(O)[C@@H](N(C)C)[C@@H]3[C@@H](O)[C@@H]21 [Doxycycline] | 0.03 to 0.5 µg/mL (≈ 0.0675 to 1.13 µM) | 0.03 to 0.5 µg/mL (≈ 0.0675 to 1.13 µM) |  |  |  | 
3 | C=C[C@]1(C)C[C@@H](OC(=O)CS[C@@H]2CC[C@@H](N)C[C@H]2O)[C@]2(C)[C@H](C)CC[C@]3(CCC(=O)[C@H]32)[C@@H](C)[C@@H]1O [Lefamulin, reference compound] | 0.001 to 0.008 µg/mL (≈ 0.00197 to 0.0158 µM) | 0.001 to 0.008 µg/mL (≈ 0.00197 to 0.0158 µM) | 0.03 to 0.06 µg/mL (≈ 0.0591 to 0.118 µM) | 0.015 to 0.25 µg/mL (≈ 0.0295 to 0.492 µM) | 0.03 to 0.5 µg/mL (≈ 0.0591 to 0.985 µM) | MIC [1]: 16 µg/mL (≈ 31.5 µM); MIC [2]: ≤ 0.03 µg/mL; MIC [3]: ≤ 0.03 µg/mL; MIC [4]: 8 µg/mL (≈ 15.8 µM); MIC [5]: 16 µg/mL (≈ 31.5 µM)
4 | CO/N=C(\C(=O)N[C@@H]1C(=O)N2C(C(=O)O)=C(COC(N)=O)CS[C@H]12)c1ccco1 [Cefuroxime] | 0.016 to 0.25 µg/mL (≈ 0.0377 to 0.589 µM) | 0.016 to 0.25 µg/mL (≈ 0.0377 to 0.589 µM) |  |  |  | 
5 | Cc1nccnc1/C=C/[C@@]1(C)C[C@@H](OC(=O)CSC2CCNCC2)[C@]2(C)[C@H](C)CC[C@]3(CCC(=O)[C@H]32)[C@@H](C)[C@@H]1O [BC-9842, 12-epi-12-desvinyl-14-O-[(Piperidin-4-ylsulfanyl]-acetyl]-12-[2-(3-methyl-pyrazin-2-yl)-ethenyl]-mutilin] | 0.001 to 0.004 µg/mL (≈ 0.00175 to 0.00702 µM) | 0.001 to 0.004 µg/mL (≈ 0.00175 to 0.00702 µM) | 0.015 to 0.25 µg/mL (≈ 0.0263 to 0.439 µM) | 0.015 to 0.12 µg/mL (≈ 0.0263 to 0.211 µM) | 0.03 to 0.05 µg/mL (≈ 0.0526 to 0.0877 µM) | 
6 | 12-epi-12-desvinyl-14-O-[(azepan-4-ylsulfanyl)-acetyl]-12-((E)-2-pyridin-3-yl-ethenyl) mutilin hydrochloride [Example 154 of WO 2015/110481, reference compound] |  |  |  |  |  | MIC Streptococcus agalactiae lsa(E) (n = 2) [1, 9]: 4 to 8 µg/mL; MIC Staphylococcus aureus ATCC49951 [2]: ≤0.03 µg/mL; MIC Streptococcus pneumoniae ATCC49619 [3]: ≤0.03 µg/mL; MIC Staphylococcus aureus vga(A) (+) [4]: 2 to 4 µg/mL; MIC Staphylococcus aureus cfr (+) (n = 2) [5, 9]: 0.5 to 4 µg/mL
7 | CC[C@H]1OC(=O)[C@H](C)[C@@H](O[C@H]2C[C@@](C)(OC)[C@@H](O)[C@H](C)O2)[C@H](C)[C@@H](O[C@@H]2O[C@H](C)C[C@H](N(C)C)[C@H]2O)[C@](C)(O)C[C@@H](C)C(=O)[C@H](C)[C@@H](O)[C@]1(C)O [Erythromycin] | 0.001 to 0.004 µg/mL (≈ 0.00136 to 0.00545 µM) | 0.002 to 0.016 µg/mL (≈ 0.00273 to 0.0218 µM) |  |  |  | 
8 | CO/N=C(\C(=O)N[C@@H]1C(=O)N2C(C(=O)O)=C(CSc3nc(=O)c(=O)[nH]n3C)CS[C@H]12)c1csc(N)n1 [Ceftriaxone] | 0.004 to 0.03 µg/mL (≈ 0.00721 to 0.0541 µM) | 0.004 to 0.016 µg/mL (≈ 0.00721 to 0.0289 µM) |  |  |  | 
9 | C[C@@H]1CC[C@@]23CCC(=O)[C@H]2[C@]1(C)[C@H](OC(=O)CS[C@H]1CO[C@H]2[C@@H]1OC[C@@H]2N)C[C@](C)(/C=C/c1cncnc1)[C@@H](O)[C@@H]3C [Example 2, 12-epi-12-Desvinyl-14-O-{[(3S,3aR,6S,6aS)-3-amino-2,3,3a,5,6,6a-hexahydrofuro[3,2-b]furan-6-yl]sulfanylacetyl}-12-[(E)-2-(pyrimidin-5-yl)-ethenyl]-mutilin dihydrochloride] | 0.001 to 0.004 µg/mL | 0.001 to 0.002 µg/mL | 0.015 to 0.06 µg/mL | 0.015 to 0.03 µg/mL | 0.015 to 0.12 µg/mL | MIC [1]: 0.03 to 0.06 µg/mL; MIC [2]: ≤ 0.03 µg/mL; MIC [3]: ≤ 0.03 µg/mL; MIC [4]: 1 µg/mL; MIC [5]: 0.12 to 1 µg/mL; IC50 at 2 h [6]: > 609 µM
10 | C[C@@H]1CC[C@@]23CCC(=O)[C@H]2[C@]1(C)[C@H](OC(=O)CS[C@H]1CO[C@H]2[C@@H]1OC[C@@H]2N)C[C@](C)(/C=C/c1cccnc1)[C@@H](O)[C@@H]3C [Example 1, 12-epi-12-Desvinyl-14-O-{[(3S,3aR,6S,6aS)-3-amino-2,3,3a,5,6,6a-hexahydrofuro[3,2-b]furan-6-yl]sulfanylacetyl}-12-[(E)-2-(3-pyridyl)-ethenyl]-mutilin dihydrochloride] | 0.001 to 0.004 µg/mL | 0.001 to 0.002 µg/mL | 0.015 to 0.06 µg/mL | 0.015 to 0.03 µg/mL | 0.015 to 0.12 µg/mL | MIC [1]: 0.06 to 0.12 µg/mL; MIC [2]: ≤ 0.03 µg/mL; MIC [3]: ≤ 0.03 µg/mL; MIC [4]: 0.5 µg/mL; MIC [5]: 0.12 to 0.5 µg/mL; IC50 at 2 h [6]: 215 µM
11 | CC[C@H]1OC(=O)[C@H](C)[C@@H](O[C@H]2C[C@@](C)(OC)[C@@H](O)[C@H](C)O2)[C@H](C)[C@@H](O[C@@H]2O[C@H](C)C[C@H](N(C)C)[C@H]2O)[C@](C)(O)C[C@@H](C)CN(C)[C@H](C)[C@@H](O)[C@]1(C)O [Azithromycin] | 0.001 to 0.004 µg/mL (≈ 0.00134 to 0.00534 µM) | 0.001 to 0.004 µg/mL (≈ 0.00134 to 0.00534 µM) |  |  |  | 
12 | C[C@H]1COc2c(N3CCN(C)CC3)c(F)cc3c(=O)c(C(=O)O)cn1c23 [Levofloxacin] | 2 to 8 µg/mL (≈ 5.53 to 22.1 µM) | 2 to 4 µg/mL (≈ 5.53 to 11.1 µM) |  |  |  | 
13 | CC1(C)S[C@@H]2[C@H](NC(=O)[C@H](N)c3ccc(O)cc3)C(=O)N2[C@H]1C(=O)O [Amoxicillin] | 0.03 to 0.12 µg/mL (≈ 0.0821 to 0.328 µM) | 0.03 to 0.12 µg/mL (≈ 0.0821 to 0.328 µM) |  |  |  | 
14 | Cc1nccnc1/C=C/[C@@]1(C)C[C@@H](OC(=O)CS[C@H]2CO[C@H]3[C@@H]2OC[C@@H]3N)[C@]2(C)[C@H](C)CC[C@]3(CCC(=O)[C@H]32)[C@@H](C)[C@@H]1O [Example 3, 12-epi-12-Desvinyl-14-O-{[(3S,3aR,6S,6aS)-3-amino-2,3,3a,5,6,6a-hexahydrofuro[3,2-b]furan-6-yl]sulfanylacetyl}-12-[(E)-2-(3-methyl-pyrazin-2-yl)-ethenyl]-mutilin dihydrochloride] | 0.001 to 0.008 µg/mL | 0.001 to 0.004 µg/mL | 0.03 to 0.25 µg/mL | 0.015 to 0.12 µg/mL | 0.03 to 0.5 µg/mL | MIC [1]: 0.5 to 1 µg/mL; MIC [2]: ≤ 0.03 µg/mL; MIC [3]: ≤ 0.03 µg/mL; MIC [4]: 1 µg/mL; MIC [5]: 1 µg/mL; IC50 at 2 h [6]: > 433 µM
